From ChEMBL document CHEMBL1125524, “Adenosine A1 antagonists. 2. Structure-activity relationships on diuretic activities and protective effects against acute renal failure” (J Med Chem, 1992)

Tests used:
Rattus norvegicus [1] = assay: Ratio of urinary excretion value (Na+ concentration) in treated rats to that in control rats, at a peroral dose of 25 mg/Kg; assay type: functional, Urine
Rattus norvegicus [2] = assay: Percent inhibition of Urea nitrogen by the compound given as ratio of UN value in treated to vehicle treated ones after intraperitoneal administration of 10 mg/kg of compound to rats(vehicle 97.7+/-8.7); assay type: functional; details: ip
Rattus norvegicus [3] = assay: Urea nitrogen concentration measured after intraperitoneal administration of 10 mg/kg of compound to rats(vehicle 97.7+/-8.7); assay type: functional
Rattus norvegicus [4] = assay: Oral diuretic activity was measured after oral administration of 25 mg/kg to rats(control volume is 1.04+/-0.11); assay type: functional, Urine
Rattus norvegicus [5] = assay: Ratio of sodium ion/potassium ion concentration in treated rats to that in control rats, at a peroral dose of 25 mg/Kg; assay type: functional
Rattus norvegicus [6] = assay: Serum creatinine concentration measured after intraperitoneal administration of 10 mg/kg of compound to rats(vehicle 2.74+/-0.27); assay type: functional
Rattus norvegicus [7] = assay: Effect on urinary excretion potassium and sodium after oral administration of 25 mg/kg to rats(potassium and sodium excretion in control rat is 0.095+/-0.009); assay type: functional, Urine
Rattus norvegicus [8] = assay: Percent inhibition of serum creatinine by the compound given as ratio of Cr value in treated to vehicle treated ones after intraperitoneal administration of 10 mg/kg of compound to rats(vehicle 2.74+/-0.27); assay type: functional; details: ip
Rattus norvegicus [9] = assay: Ratio of urinary excretion value (urinary volume) in treated rats to that in control rats, at a peroral dose of 25 mg/Kg; assay type: functional, Urine
Rattus norvegicus [10] = assay: Ratio of sodium ion/potassium ion concentration in treated rats to that in control rats, at a peroral dose of 1.6 mg/Kg; assay type: functional
Rattus norvegicus [11] = assay: Urea nitrogen concentration measured after intraperitoneal administration of 1 mg/kg of compound to rats(vehicle 120.9+/-23.3); assay type: functional
Rattus norvegicus [12] = assay: Percent inhibition of serum creatinine by the compound given as ratio of UN value in treated to vehicle treated ones after intraperitoneal administration of 10 mg/kg of compound to rats(vehicle 146.7+/-10.1); assay type: functional; details: ip
Rattus norvegicus [13] = assay: Oral diuretic activity was measured after oral administration of 25 mg/kg to rats(control volume is 0.69+/-0.03); assay type: functional, Urine
Rattus norvegicus [14] = assay: Effect on urinary excretion potassium and sodium after oral administration of 1.6 mg/kg to rats(potassium and sodium excretion in control rat is 0.158+/-0.034); assay type: functional, Urine
Rattus norvegicus [15] = assay: Percent inhibition of serum creatinine by the compound given as ratio of Cr value in treated to vehicle treated ones after intraperitoneal administration of 1 mg/kg of compound to rats(vehicle 3.06+/-0.68); assay type: functional; details: ip
Rattus norvegicus [16] = assay: Serum creatinine concentration measured after intraperitoneal administration of 1 mg/kg of compound to rats(vehicle 3.06+/-0.68); assay type: functional
Rattus norvegicus [17] = assay: Ratio of urinary excretion value (Na+ concentration) in treated rats to that in control rats, at a peroral dose of 1.6 mg/Kg; assay type: functional, Urine
Rattus norvegicus [18] = assay: Percent inhibition of serum creatinine by the compound given as ratio of UN value in treated to vehicle treated ones after intraperitoneal administration of 1 mg/kg of compound to rats(vehicle 120.9+/-23.3); assay type: functional; details: ip
Rattus norvegicus [19] = assay: Urea nitrogen concentration measured after intraperitoneal administration of 10 mg/kg of compound to rats(vehicle 146.7+/-10.1); assay type: functional
Rattus norvegicus [20] = assay: Serum creatinine concentration measured after intraperitoneal administration of 10 mg/kg of compound to rats(vehicle 4.26+/-0.39); assay type: functional
Rattus norvegicus [21] = assay: Effect on urinary excretion potassium and sodium after oral administration of 25 mg/kg to rats(potassium and sodium excretion in control rat is 0.079+/-0.007); assay type: functional, Urine
Rattus norvegicus [22] = assay: Ratio of urinary excretion value (urinary volume) in treated rats to that in control rats, at a peroral dose of 1.6 mg/Kg; assay type: functional, Urine
Adenosine A2 receptor = Adenosine A2 receptor (Rattus norvegicus, UniProt P29276+P30543)
Rattus norvegicus [23] = assay: Percent inhibition of serum creatinine by the compound given as ratio of Cr value in treated to vehicle treated ones after intraperitoneal administration of 10 mg/kg of compound to rats(vehicle 4.26+/-0.39); assay type: functional; details: ip
Rattus norvegicus [24] = assay: Oral diuretic activity was measured after oral administration of 1.6 mg/kg to rats(control volume is 1.12+/-0.33); assay type: functional, Urine

## CCCn1c(=O)c2[nH]c(-c3ccc(OCC(=O)NCCN)cc3)nc2n(CCC)c1=O [XANTHINE AMINE CONGENER]
Rattus norvegicus [1]
  T/C: 1.19
Rattus norvegicus [2]
  inhibition in vivo at 10 mg/kg: 28%
Rattus norvegicus [3]
  UN: 70.1 mg/dL
Rattus norvegicus [4]
  Urine volume: 1.05 ml 6hr-1 100g-1
Rattus norvegicus [5]
  Na+/K+: 1.24
Rattus norvegicus [6]
  Cr: 2.07 mg/dL
Rattus norvegicus [7]
  Na: 0.113 m equiv 6hr-1 100g-1
Rattus norvegicus [8]
  inhibition in vivo at 10 mg/kg: 24%
Rattus norvegicus [9]
  T/C: 1.05

## CCCn1c(=O)c2nc(C[C@H]3CC4CCC3C4)[nH]c2n(CCC)c1=O (stereo partly drawn)
Rattus norvegicus [10]
  Na+/K+: 0.85
Rattus norvegicus [11]
  UN: 104.7 mg/dL
Rattus norvegicus [12]
  inhibition in vivo at 10 mg/kg: 38%
Rattus norvegicus [1]
  T/C: 2.91
Rattus norvegicus [13]
  Urine volume: 1.66 ml 6hr-1 100g-1
Rattus norvegicus [14]
  Na: 0.131 m equiv 6hr-1 100g-1
Rattus norvegicus [15]
  inhibition in vivo at 1 mg/kg: 10%
Rattus norvegicus [16]
  Cr: 2.75 mg/dL
Rattus norvegicus [17]
  T/C: 0.83
Rattus norvegicus [18]
  inhibition in vivo at 1 mg/kg: 13%
Rattus norvegicus [19]
  UN: 90.9 mg/dL
Rattus norvegicus [20]
  Cr: 2.53 mg/dL
Rattus norvegicus [5]
  Na+/K+: 2.12
Rattus norvegicus [21]
  Na: 0.23 m equiv 6hr-1 100g-1
Rattus norvegicus [22]
  T/C: 0.77
Adenosine A2 receptor
  Ki: 1000 nM
Rattus norvegicus [9]
  T/C: 2.41
Rattus norvegicus [23]
  inhibition in vivo at 10 mg/kg: 41%
Rattus norvegicus [24]
  Urine volume: 0.86 ml 6hr-1 100g-1
